Assay results taken from the NIST ThermoML archive (doi:10.1016/j.jct.2013.09.009).
Numbers after ± are expanded uncertainties.

Experiment: cn = amount concentration of the nth substance listed, in mol/dm3
Details: 298.15 K, 101 kPa, Liquid, c1 = 1

speed of sound (Sing-around technique in a fixed-path interferometer): 1561.4 ± 1.3 m/s | mass density (Vibrating tube method): 1023.26 ± 0.12 kg/m3
Compound: CNCC(=O)O [sarcosine] + O
